According to BindingDB's records for doi:10.1016/j.bmcl.2006.09.018 (Gsk, 2006):

Tests used:
[1] = molecular target: T1, Inhibitor of nuclear factor kappa-B kinase subunit beta (Homo sapiens, UniProt O14920); experiment: IKK Kinase Inhibition Assay; conditions: pH 7.4; 22 °C
T1 sequence (O14920 whole entry): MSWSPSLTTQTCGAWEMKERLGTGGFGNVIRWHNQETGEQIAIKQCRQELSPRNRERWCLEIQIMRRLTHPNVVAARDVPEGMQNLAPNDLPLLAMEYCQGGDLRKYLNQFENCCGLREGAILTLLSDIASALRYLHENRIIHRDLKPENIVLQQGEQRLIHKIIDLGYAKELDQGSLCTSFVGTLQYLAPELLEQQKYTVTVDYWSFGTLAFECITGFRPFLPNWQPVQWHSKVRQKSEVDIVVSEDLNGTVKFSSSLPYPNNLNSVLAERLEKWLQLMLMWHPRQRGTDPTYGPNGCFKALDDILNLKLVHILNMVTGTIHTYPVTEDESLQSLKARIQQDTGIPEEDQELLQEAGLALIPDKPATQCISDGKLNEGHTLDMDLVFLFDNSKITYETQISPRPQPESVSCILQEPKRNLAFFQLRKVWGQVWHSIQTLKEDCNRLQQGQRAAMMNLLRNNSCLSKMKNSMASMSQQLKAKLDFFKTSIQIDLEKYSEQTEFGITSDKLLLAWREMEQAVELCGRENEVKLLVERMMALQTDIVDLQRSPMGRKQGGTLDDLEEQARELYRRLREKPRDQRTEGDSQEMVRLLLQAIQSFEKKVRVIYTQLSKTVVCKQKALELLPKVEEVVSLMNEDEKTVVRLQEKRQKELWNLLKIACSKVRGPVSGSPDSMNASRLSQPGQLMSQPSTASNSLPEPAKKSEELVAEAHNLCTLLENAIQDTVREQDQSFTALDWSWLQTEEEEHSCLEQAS
Method: (§1) IKK kinase activity was assessed using a time-resolved fluorescence resonance energy transfer (TR-FRET) assay. The reaction was initiated by the addition of GST-IKBalpha substrate/ATP to the reaction buffer containing IKK kinase and test compounds. After incubation, detection reagent containing antiphosphoserine IKBalpha monoclonal antibody labelled with europium chelate, and an APC-labelled anti-GST antibody was added.

[2] = molecular target: Serine/threonine-protein kinase PLK1 (Homo sapiens, UniProt P53350); experiment: Scintillation Proximity Assay (SPA); conditions: pH 7.2; 22 °C
Method: The compound inhibitory activity was determined by incubation with purified PLK1 and biotinylated peptide substrate in the presence ATP/[gamma-33P]ATP. After incubation, the phosphorylated substrate was separated from nonincorporated radioactive ATP using SPA beads. Incorporated radioactivity was measured using Packard TopCount.

[3] = molecular target: T2, Inhibitor of nuclear factor kappa-B kinase subunit epsilon (Homo sapiens, UniProt Q14164); experiment: IKK Kinase Inhibition Assay; conditions: pH 7.4; 22 °C
T2 sequence (Q14164 whole entry): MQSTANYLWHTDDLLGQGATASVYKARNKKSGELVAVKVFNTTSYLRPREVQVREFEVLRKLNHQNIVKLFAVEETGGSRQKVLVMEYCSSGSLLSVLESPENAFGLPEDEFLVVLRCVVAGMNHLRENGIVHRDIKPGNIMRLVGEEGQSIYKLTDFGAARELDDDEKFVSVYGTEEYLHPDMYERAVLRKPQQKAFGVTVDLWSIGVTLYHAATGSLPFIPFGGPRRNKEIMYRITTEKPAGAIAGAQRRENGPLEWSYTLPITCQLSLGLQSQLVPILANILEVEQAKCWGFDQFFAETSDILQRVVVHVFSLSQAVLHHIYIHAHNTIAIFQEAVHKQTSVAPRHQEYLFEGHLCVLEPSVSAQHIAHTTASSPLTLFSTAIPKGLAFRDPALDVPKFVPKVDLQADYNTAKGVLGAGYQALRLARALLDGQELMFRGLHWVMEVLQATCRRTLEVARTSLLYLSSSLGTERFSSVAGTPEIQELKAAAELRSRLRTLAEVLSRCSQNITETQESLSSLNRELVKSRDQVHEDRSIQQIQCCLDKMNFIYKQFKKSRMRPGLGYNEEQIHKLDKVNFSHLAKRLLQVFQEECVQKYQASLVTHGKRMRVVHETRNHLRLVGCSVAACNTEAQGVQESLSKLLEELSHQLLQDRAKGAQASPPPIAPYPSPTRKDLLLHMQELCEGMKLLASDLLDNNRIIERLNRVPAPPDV
Method: as §1

Sequence of Serine/threonine-protein kinase PLK1 (P53350 whole entry): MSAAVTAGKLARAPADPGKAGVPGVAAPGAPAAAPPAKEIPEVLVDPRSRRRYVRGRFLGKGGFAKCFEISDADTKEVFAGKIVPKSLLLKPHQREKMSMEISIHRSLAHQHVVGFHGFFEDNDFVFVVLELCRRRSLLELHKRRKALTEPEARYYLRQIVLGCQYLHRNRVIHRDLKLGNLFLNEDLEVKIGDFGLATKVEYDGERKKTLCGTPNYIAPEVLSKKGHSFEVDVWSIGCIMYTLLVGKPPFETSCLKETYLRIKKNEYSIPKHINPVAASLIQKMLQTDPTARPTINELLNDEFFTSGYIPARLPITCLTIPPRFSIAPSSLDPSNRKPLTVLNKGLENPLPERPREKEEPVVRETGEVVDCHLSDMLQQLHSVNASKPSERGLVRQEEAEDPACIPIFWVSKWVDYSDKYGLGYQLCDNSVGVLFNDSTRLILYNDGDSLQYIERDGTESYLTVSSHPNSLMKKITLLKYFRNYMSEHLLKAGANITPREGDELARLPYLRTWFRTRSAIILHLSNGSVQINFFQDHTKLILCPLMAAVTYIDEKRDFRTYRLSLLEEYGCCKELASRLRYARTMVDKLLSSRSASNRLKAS

Row | SMILES | IC50 [1] | IC50 [2] | IC50 [3]
1 | Cc1ccc(COc2cc(-n3cnc4ccccc43)sc2C(N)=O)cc1 [BMCL191018 Compound 9] | – | 0.126 µM | 3.98 µM
2 | COc1cc2ncn(-c3cc(OCc4ccccc4S(C)(=O)=O)c(C#N)s3)c2cc1OC [5-(5,6-dimethoxy-1H-1,3-benzodiazol-1-yl)-3-[(2-methanesulfonylphenyl)methoxy]thiophene-2-carbonitrile] | > 15.8 µM | – | –
3 | COc1cc2ncn(-c3cc(OCc4ccc(S(C)(=O)=O)cc4)c(C(N)=O)s3)c2cc1OC [BMCL191018 Compound 39] | > 15.8 µM | – | > 15.8 µM

Next, values leading:

Row | IC50 [1] | IC50 [2] | IC50 [3] | SMILES
4 | > 15.8 µM | > 10 µM | – | COc1cc2ncn(-c3cc(OCC4CCCO4)c(C#N)s3)c2cc1OC (stereo not given) [5-(5,6-dimethoxy-1H-1,3-benzodiazol-1-yl)-3-(oxolan-2-ylmethoxy)thiophene-2-carbonitrile]
5 | > 15.8 µM | – | > 15.8 µM | COc1cc2ncn(-c3cc(OCC4CCCO4)c(C(N)=O)s3)c2cc1OC (stereo not given) [5-(5,6-dimethoxy-1H-1,3-benzodiazol-1-yl)-3-(oxolan-2-ylmethoxy)thiophene-2-carboxamide]
6 | > 15.8 µM | – | – | COc1cc2ncn(-c3cc(OCc4ccc(S(C)(=O)=O)cc4)c(C#N)s3)c2cc1OC [5-(5,6-dimethoxy-1H-1,3-benzodiazol-1-yl)-3-[(4-methanesulfonylphenyl)methoxy]thiophene-2-carbonitrile]
